System: not given
Assay: not given
Details: dosed intranasally, phase I/II study, allergic rhinitis; cited from earlier work

| Structure (SMILES) | PGD2 (immune mediator) | clinical safety |
| --- | --- | --- |
| Oc1cccc(Nc2ncc(F)c(Nc3cccc(O)c3)n2)c1 [Example R112] | statistically significant decrease in PGD2 | safe across a range of indicators |

Target: T1, recombinant human GST-SYK (Homo sapiens, UniProt P43405)
T1 construct: purchased Carna Biosciences 08-176
Assay: Homogeneous Time-Resolved Fluorescence (HTRF) assay for the recombinant human Syk enzyme
Assay type: biochemical
Details: recombinant human GST-SYK 5 pM, ATP 25 μM, read-out: rhSyk
Method: Homogeneous Time-Resolved Fluorescence (HTRF) Assay for the Recombinant Human Syk Enzyme
A recombinant GST-hSYK fusion protein was used to measure potency of compounds to inhibit human Syk activity. The recombinant human GST-SYK (Carna Biosciences #08-176) (5 pM final concentration) was incubated with various concentrations of the inhibitor diluted in DMSO (0.1% final concentration) for 10 minutes at room temperature in 15 mM Tris-HCl (pH 7.5), 0.01% tween 20, 2 mM DTT in 384 well plate format. To initiate the reaction the biotinylated substrate peptide (250 nM final concentration) that contains the phosphorylation site for Syk was added with magnesium (5 mM final concentration) and ATP (25 μM final concentration). Final volume of the reaction was 10 μL. Phosphorylation of the peptide was allowed to proceed for 45′ at room temperature. To quench the reaction and detect the phosphorylated product, 2 nM of a Europium-anti-phosphotyrosine antibody (Perkin Elmer #AD0161) and 70 nM SA-APC (Perkin-Elmer #CR130-100) were added together in 15 mM Tris pH 7.5, 40 mM EDTA, 0.01% tween 20. Final volume of the quenching solution was 10 μL.
The resulting HTRF signal was measured after 30 minutes on an EnVision (Perkin-Elmer) reader using a time-resolved fluorescence protocol. Table A below lists activities as IC50 values (nM) for representative compounds of the invention.

| Structure (SMILES) | IC50 [µM] |
| --- | --- |
| Cc1cc(Nc2ncn(C3CCC3)n2)cc(-c2cnc([C@]3(O)CC[C@@H](C(=O)O)C(C)(C)C3)s2)c1 (single isomer, unassigned) [Example 2.24, (1R,4S or 1S,4R)-4-(5-{3-[(1-cyclobutyl-1H-1,2,4-triazol-3-yl)amino]-5-methylphenyl}-1,3-thiazol-2-yl)-4-hydroxy-2,2-dimethylcyclohexanecarboxylic acid] | 0.000388 |
| Cc1cc(Nc2ncn(C3CCC3)n2)cc(-c2cnc([C@]3(O)CC[C@@H](C(=O)O)C(C)(C)C3)s2)c1 (single isomer, unassigned) [Example 2.25, (1R,4S or 1S,4R)-4-(5-{3-[(1-cyclobutyl-1H-1,2,4-triazol-3-yl)amino]-5-methylphenyl}-1,3-thiazol-2-yl)-4-hydroxy-2,2-dimethylcyclohexanecarboxylic acid] | 0.00254 |
| Cc1cc(Nc2ncn(C)n2)cc(-c2cnc(C3(O)CCC(C(=O)OC(C)(C)C)CC3)s2)c1 (centres unmarked) [Example 1.1, tert-butyl 4-hydroxy-4-(5-(3-methyl-5-((1-methyl-1H-1,2,4-triazol-3-yl)amino)phenyl)thiazol-2-yl)cyclohexanecarboxylate] | 1.16 |
| Cc1cc(Nc2ncn(C)n2)cc(-c2cnc(C3(O)CCC(C(=O)O)CC3)s2)c1 (centres unmarked) [Example 1.2, 4-hydroxy-4-(5-(3-methyl-5-((1-methyl-1H-1,2,4-triazol-3-yl)amino)phenyl)thiazol-2-yl)cyclohexanecarboxylic acid] | 0.0565 |
| CCn1cnc(Nc2cc(C)cc(-c3cnc(C4(O)CCC(C(=O)OC(C)(C)C)CC4)s3)c2)n1 (centres unmarked) [Example 2.1, tert-butyl 4-(5-(3-((1-ethyl-1H-1,2,4-triazol-3-yl)amino)-5-methylphenyl)thiazol-2-yl)-4-hydroxycyclohexanecarboxylate] | 1.11 |
| CCn1cnc(Nc2cc(C)cc(-c3cnc(C4(O)CCC(C(=O)O)CC4)s3)c2)n1 (centres unmarked) [Example 2.2, 4-(5-(3-((1-ethyl-1H-1,2,4-triazol-3-yl)amino)-5-methylphenyl)thiazol-2-yl)-4-hydroxycyclohexanecarboxylic acid] | 0.0101 |
| CCn1cnc(Nc2cc(C)cc(-c3cnc([C@]4(O)CC[C@@H](C(N)=O)CC4)s3)c2)n1 [Example 2.3, 4-(5-(3-((1-Ethyl-1H-1,2,4-triazol-3-yl)amino)-5-methylphenyl)thiazol-2-yl)-4-hydroxycyclohexanecarboxamide] | 0.0496 |
| Cc1cc(Nc2cc[nH]n2)cc(-c2cnc(C3(O)CCC3)s2)c1 [Example 2.4, 1-{5-[3-methyl-5-(1H-pyrazol-3-ylamino)phenyl]-1,3-thiazol-2-yl}cyclobutanol] | 1.14 |
| Cc1cc(Nc2cc(C)[nH]n2)cc(-c2cnc(C3(O)CCC3)s2)c1 [Example 2.5, 1-(5-{3-methyl-5-[(5-methyl-1H-pyrazol-3-yl)amino]phenyl}-1,3-thiazol-2-yl)cyclobutanol] | 0.941 |
| Cc1cc(Nc2cc(C3CC3)[nH]n2)cc(-c2cnc(C3(O)CCC3)s2)c1 [Example 2.6, 1-(5-{3-[(5-cyclopropyl-1H-pyrazol-3-yl)amino]-5-methylphenyl}-1,3-thiazol-2-yl)cyclobutanol] | 0.181 |
| Cc1cc(Nc2cc(C3CCC3)[nH]n2)cc(-c2cnc(C3(O)CCC3)s2)c1 [Example 2.7, 1-(5-{3-[(5-cyclobutyl-1H-pyrazol-3-yl)amino]-5-methylphenyl}-1,3-thiazol-2-yl)cyclobutanol] | 0.274 |
| Cc1cc(Nc2n[nH]c(C)n2)cc(-c2cnc(C3(O)CCC3)s2)c1 [Example 2.9, 1-(5-{3-methyl-5-[(5-methyl-1H-1,2,4-triazol-3-yl)amino]phenyl}-1,3-thiazol-2-yl)cyclobutanol] | 1.3 |
| Cc1cc(Nc2ncn(C)n2)cc(-c2cnc(C3(O)CCC3)s2)c1 [Example 2.10, 1-(5-{3-methyl-5-[(1-methyl-1H-1,2,4-triazol-3-yl)amino]phenyl}-1,3-thiazol-2-yl)cyclobutanol] | 0.188 |
| Cc1cc(Nc2ncn(C(C)C)n2)cc(-c2cnc(C3(O)CCC3)s2)c1 [Example 2.11, 1-[5-(3-methyl-5-{[1-(1-methylethyl)-1H-1,2,4-triazol-3-yl]amino}phenyl)-1,3-thiazol-2-yl]cyclobutanol] | 0.0492 |
| CCn1cnc(Nc2cc(C)cc(-c3cnc(C4(O)CCC4)s3)c2)n1 [Example 2.12, 1-(5-{3-[(1-ethyl-1H-1,2,4-triazol-3-yl)amino]-5-methylphenyl}-1,3-thiazol-2-yl)cyclobutanol] | 0.0491 |
| CCCn1cnc(Nc2cc(C)cc(-c3cnc(C4(O)CCC4)s3)c2)n1 [Example 2.13, 1-(5-{3-methyl-5-[(1-propyl-1H-1,2,4-triazol-3-yl)amino]phenyl}-1,3-thiazol-2-yl)cyclobutanol] | 0.0967 |
| Cc1cc(Nc2ncn(-c3ccccc3)n2)cc(-c2cnc(C3(O)CCC3)s2)c1 [Example 2.14, 1-(5-{3-methyl-5-[(1-phenyl-1H-1,2,4-triazol-3-yl)amino]phenyl}-1,3-thiazol-2-yl)cyclobutanol] | 0.365 |
| Cc1cc(Nc2ncn(C(=O)N(C)C)n2)cc(-c2cnc(C3(O)CCC3)s2)c1 [Example 2.15, 3-({3-[2-(1-hydroxycyclobutyl)-1,3-thiazol-5-yl]-5-methylphenyl}amino)-N,N-dimethyl-1H-1,2,4-triazole-1-carboxamide] | 3.86 |
| Cc1cc(Nc2ncn(C3CCCCC3)n2)cc(-c2cnc(C3(O)CCC3)s2)c1 [Example 2.16, 1-(5-{3-[(1-cyclohexyl-1H-1,2,4-triazol-3-yl)amino]-5-methylphenyl}-1,3-thiazol-2-yl)cyclobutanol] | 0.115 |
| Cc1cc(Nc2ncn(C3CCC3)n2)cc(-c2cnc(C3(O)CCC3)s2)c1 [Example 2.17, 1-(5-{3-[(1-cyclobutyl-1H-1,2,4-triazol-3-yl)amino]-5-methylphenyl}-1,3-thiazol-2-yl)cyclobutanol] | 0.00741 |
| Cc1cc(Nc2ncnn2C2CCC2)cc(-c2cnc(C3(O)CCC3)s2)c1 [Example 2.18, 1-(5-{3-[(1-cyclobutyl-1H-1,2,4-triazol-5-yl)amino]-5-methylphenyl}-1,3-thiazol-2-yl)cyclobutanol] | 7.71 |
| Cc1cc(Nc2ncn(Cc3ccccc3)n2)cc(-c2cnc(C3(O)CCC3)s2)c1 [Example 2.19, 1-(5-{3-[(1-benzyl-1H-1,2,4-triazol-3-yl)amino]-5-methylphenyl}-1,3-thiazol-2-yl)cyclobutanol] | 0.325 |
| Cc1cc(Nc2ncn(C(C)C)n2)cc(-c2cnc([C@]3(O)CC[C@@H](C(=O)OC(C)(C)C)CC3)s2)c1 [Example 2.20, tert-butyl cis-4-hydroxy-4-[5-(3-methyl-5-{[1-(1-methylethyl)-1H-1,2,4-triazol-3-yl]amino}phenyl)-1,3-thiazol-2-yl]cyclohexanecarboxylate] | 1 |
| Cc1cc(Nc2ncnn2C2CCC2)cc(-c2cnc([C@]3(O)CC[C@@H](C(=O)O)CC3)s2)c1 [Example 2.21, cis-4-(5-{3-[(1-cyclobutyl-1H-1,2,4-triazol-5-yl)amino]-5-methylphenyl}-1,3-thiazol-2-yl)-4-hydroxycyclohexane-carboxylic acid] | 3.31 |
| Cc1cc(Nc2ncn(C(C)C)n2)cc(-c2cnc([C@]3(O)CC[C@@H](C(=O)O)CC3)s2)c1 [Example 2.22, cis-4-hydroxy-4-[5-(3-methyl-5-{[1-(1-methylethyl)-1H-1,2,4-triazol-3-yl]amino}phenyl)-1,3-thiazol-2-yl]cyclohexanecarboxylic acid] | 0.00994 |
| Cc1cc(Nc2ncn(C(C)C)n2)cc(-c2cnc([C@]3(O)CC[C@@H](C(N)=O)CC3)s2)c1 [Example 2.23, cis-4-hydroxy-4-[5-(3-methyl-5-{[1-(1-methylethyl)-1H-1,2,4-triazol-3-yl]amino}phenyl)-1,3-thiazol-2-yl]cyclohexanecarboxamide] | 0.0368 |

System: not given
Assay: not given
Details: phase II clinical trial, allergic rhinitis; cited from earlier work

| Structure (SMILES) | efficacy versus placebo |
| --- | --- |
| Oc1cccc(Nc2ncc(F)c(Nc3cccc(O)c3)n2)c1 [Example R112] | lack of efficacy versus placebo |
